Measurements taken from patent publication US8212024B2, “Crystalline sodium salt of cephalosporin antibiotic” (Orchid Chemicals & Pharmaceuticals Ltd., priority 2005, dated 2012).

Tests used:
Format in all cases: physicochemical
[1] = Hygroscopicity observation
Text: Apart from the conventional formulation that are described the Ceftiofur sodium formulation may also contain chelating agent like ethylene diamine tetraacetic acid (EDTA) or a buffer like sodium citrate along with or with out conventional excipient. The pharmaceutical composition may also contain amorphous Ceftiofur sodium along with crystalline Ceftiofur sodium.

[2] = Comparison of physical characteristics: tapped bulk density
Text: The following Table provides a comparison of physical characteristics of amorphous and crystalline Ceftiofur Sodium. From this table it is evident that the crystalline Ceftiofur Sodium has better physical characteristics than amorphous material. [table]

[3] = Stability at 40 ± 2° C. & 75 ± 5% RH; settings: for Assay: in % (unit assumed)
Text: (§1) The following Tables (Table 2 & 3) provide stability data of crystalline Ceftiofur Sodium prepared according to this invention. From this it table it is evident that the crystalline Ceftiofur Sodium prepared according this invention is a very stable and a highly pure material, which is clearly indicated by total RS (Related substances) analysis & the stability data. [table]

[4] = Stability at 25 ± 2° C. & 60 ± 5% RH; settings: for Assay: in % (unit assumed)
Text: as §1

Row | Hygroscopic nature [1] | Tapped Bulk density [2] | Total RS (Related substances) ([3]; 2 month) | Assay ([3]; 2 month) | Total RS (Related substances) ([3]; 15 days) | Assay ([3]; 15 days) | Total RS (Related substances) ([3]; Initial) | Assay ([3]; Initial) | Total RS (Related substances) ([4]; 1 month) | Assay ([4]; 1 month) | Total RS (Related substances) ([4]; 2 month) | Assay ([4]; 2 month) | Total RS (Related substances) ([4]; Initial) | Assay ([4]; Initial) | Compound
1 | highly hygroscopic | 0.5 g/mL |  |  |  |  |  |  |  |  |  |  |  |  | CO/N=C(\C(=O)NC1C(=O)N2C(C(=O)[O-])=C(CSC(=O)c3ccco3)CSC12)c1csc(N)n1.[Na+] (centres unmarked) [Amorphous Ceftiofur sodium, Ceftiofur sodium, reference compound]
2 | non-hygroscopic |  |  |  |  |  |  |  |  |  |  |  |  |  | CO/N=C(\C(=O)N[C@@H]1C(=O)N2C(C(=O)[O-])=C(CSC(=O)c3ccco3)CS[C@H]12)c1csc(N)n1.[Na+] [Ceftiofur sodium]
3 | non-hygroscopic | 0.8 g/mL | 0.93% | 100.61 | 0.78% | 100.64 | 0.61% | 101.25 | 0.75% | 101.18 | 0.78% | 100.31 | 0.61% | 101.25 | CO/N=C(\C(=O)NC1C(=O)N2C(C(=O)[O-])=C(CSC(=O)c3ccco3)CSC12)c1csc(N)n1.[Na+] (centres unmarked) [Crystalline Ceftiofur sodium, Ceftiofur sodium]
